# Columns and labels:
# ROP = settings: intravitreal injection, randomized study; cited from earlier work
# hyaloid vessels = assay: Hyaloid vessel regression after intravitreal injection; assay type: in vivo, mice; settings: intravitreal injection at P5, assessed at P7, versus vehicle-injected littermate controls; final concentration ~10 μmol/L in vitreous
# Method: Hyaloid Dissection and Quantification. Hyaloid were dissected and quantified as described previously. Briefly, eyes were enucleated from P4-P8 mice and fixed for 30 min in 4% paraformaldehyde (PFA). The eyes were then transferred to PBS and dissected by removal of the lens and sclera leaving the retinal cup in which the hyaloids were loosely wrapped around the lens. The lens was then carefully removed from which the hyaloids were gently removed. The hyaloids were then transferred in a drop of PBS and flat mounted for imaging by carefully removing the remaining PBS.
# Quantification of hyaloid regression was accomplished by drawing an outline of hyaloid flat mounts (labeled with Isolectin-B4) which was then decreased in size by 50% and centered over the hyaloid flat mount. Blind counts of hyaloid vessel number were performed by counting the number of vessels which crossed the 50% outline.
# Hyperthermia-induced anesthesia of wild type P5 mice was accomplished by submerging pups in ice for 5-8 min after placing them in a latex blanket wrapped in foil to avoid direct contact between the pup and ice. Once anesthetized (assessed by toe pinch) eyes were administered a drop of proparacaine hydrochloride ophthalmic solution (Akorn), followed by gentle exposure of the eye globe. […] Eyelids were then reclosed around the eye, and erythromycin ophthalmic ointment (Akorn) was applied. […]
# retinal neovessels = settings: OIR mice
# Source text: OIR Studies/Quantification. […] Generally, pups with their dams were maintained in room air from birth until P7. From P7 to P12 pups were exposed to 75% O2 in an oxygen chamber regulated by an OxyCycler Model A84. After 2.5 d of oxygen exposure, the dams were replaced with healthy lactating dams to prevent oxygen toxicity. At P12 pups were returned to room air until P18.
# Two days after the injection, P20 mice were euthanized and retinas were dissected and immunostained for CD31 to quantify retinal vascular area as previously described^45.
# HUVECs = assay: HUVEC flow chamber study, static versus flow; assay type: cell-based, Human
# Method: Cell Culture/Flow Studies. Flow-based cell culture was performed using HUVECs (ATCC; #PCS-100-010) cultured in complete EGM-2 media (Lonza). HUVECs were cultured on Ibidi Luer^0,6 flow slides and allowed to grow at 37° C. in 5% CO2 for 24 h to a confluency of 80-90%. Slides were then attached to an Ibidi pump system with Perfusion Set Red (1.6 mm, #10962) and exposed to a sheer stress of 10 dyn/cm^2 for 24 h. Static conditions were achieved by similarly plating HUVECs in flow slides that were not exposed to flow. […] Cells were gently washed with 1 mL ice-cold PBS, then fixed and permeabilized by incubation with ice-cold methanol for 5 min. Fixed cells were treated with 1% BSA, 0.02% Triton X-100 for 1 hr at room temperature. Primary and secondary antibodies were added in 1% BSA and incubated for 2 hr at room temperature.
# HUVECs grown in this 3D culture model form vascular lumens despite the absence of blood flow. […] This possibility is supported by a recent report that the transcriptional consequences of ERG inhibition are greatly mitigated in ECs exposed to sheer stress^58.
# 3D HUVEC cultures = assay: Vasculogenic 3D collagen assay, regression of 3D lumenized HUVEC cultures; assay type: cell-based, Human
# Method: Vasculogenic 3D collagen assays. Human Umbilical Vein ECs were purchased from Lonza and used from passages 3 to 6 as previously described^42,43. ECs were suspended in 2.5 mg/mL collagen type I matrices, and assays were performed as described^42,43. With the exception that the culture media contained reduced serum supplement (RSII), ascorbic acid, FGF-2, Stem cell factor (SCF) at 40 ng/ml and interleukin-3 (IL-3) were added at 40 ng/ml. Stromal-derived factor-1α (SDF-1α) was added at 200 ng/ml into collagen type I matrices. Cultures were incubated at 37° C. in serum-free defined media and allowed to assemble over time. Cultures were fixed at 72 hr with 3% glutaraldehyde before staining with 0.1% toluidine blue in 30% methanol for nonfluorescent visualization. Lumen area was quantified by using Metamorph software as previously described^42,43. Individual data points were obtained from a triplicate wells and a minimum of 12 independent fields from these wells.
# Bioassays with pharmacologic agents and cytokines. […] In some assays, triplicate wells were lysed with sample buffer and Western blots were performed to probe for pro-caspase 3 and actin.
# YK-4-279 promotes flow-dependent vascular regression in vitro. […] Importantly, this culture model recapitulates many aspects of in vivo vessel morphology and has previously been used to model vascular regression^40.
# healthy retinal vessels = assay: Healthy retinal vessels of adult wild type mice after intravitreal injection; assay type: in vivo; settings: 48 hr after intraocular injection
# Source text: Vascular length (FIG. 8B; n=4) and branch points (FIG. 8C; n=4) from retinas treated as in (FIG. 8A) were quantified using AutoTube and normalized to retinal area per image. NS=not significant (two-tailed Student's t-test). Error bars=S.D.
# [1] = inhibitor-injected eye relative to control eye
Compound,efficacy versus conventional laser-based therapy for treating ROP (ROP),reduction in hyaloid vessel number (hyaloid vessels) [%],mice showing an increase in neovessels (retinal neovessels; [1]),mice with a decrease in retinal neovascular area (retinal neovessels; [1]),"decrease in the retinal avascular area (retinal neovessels; intravitreal injection at P18, analysed at P20, versus vehicle) [%]","reduction in retinal neovascular area (retinal neovessels; intravitreal injection at P18, analysed at P20, versus vehicle-injected contralateral eye) [%]","active caspase-3 staining (HUVECs; flow conditions, 10 dyn/cm^2)","alignment of HUVECs in the direction of flow (HUVECs; flow conditions, 10 dyn/cm^2)","cell number (HUVECs; flow conditions, 10 dyn/cm^2)","active caspase-3 staining (HUVECs; static conditions, 5 μM, 24 hr)","cell number (HUVECs; static conditions, 5 μM, 24 hr)","concentrations giving significant, dose-dependent loss of vascular luminal area (3D HUVEC cultures; 3D HUVEC cultures, 48 h treatment, toluidine blue stain)","pro-caspase 3 signal (Western blot) (3D HUVEC cultures; 3D HUVEC cultures, FIG. 5C)","extent of vascular regression (3D HUVEC lumen area) on co-incubation with cytokines (3D HUVEC cultures; co-incubation of TNFα or IL1β with YK-4-279, versus YK-4-279 alone)","effects on retinal vascularization (vascular length, branch points) (healthy retinal vessels)"
bevacizumab: a monoclonal VEGF-A antibody,more effective,–,–,–,–,–,–,–,–,–,–,–,–,–,–
COc1ccc(C(=O)CC2(O)C(=O)Nc3c(Cl)ccc(Cl)c32)cc1 (stereo not drawn) [YK-4-279],–,~40,one,9 out of 11,~60,~40,no apparent effect,inhibited the alignment,no apparent effect,increased active caspase-3 staining,significantly reduced cell numbers,greater than 1.25 μM,Reduced pro-caspase 3 signal,further increases the extent of vascular regression,no effects
